What was measured:
[1] = Cytotoxicity in yeast assessed as reduction in cell proliferation; assay type: organism-based; details: saccharomyces cerevisiae, yeast cells
[2] = Cytotoxicity against MDCK cells assessed as reduction in cell viability after 24 hrs by MTT assay; assay type: cell-based, Canis lupus familiaris; details: dog
Influenza A virus = experiment: Antiviral activity against Influenza A virus H5N1 infected in MDCK cells after 2 to 3 days by crystal violet staining-based plaque reduction assay; assay type: functional, organism-based
[3] = biological target: Matrix protein 2 (Influenza A virus (A/Udorn/307/1972(H3N2)), UniProt P0DOF8)
Chain of Matrix protein 2 (Influenza A virus (A/Udorn/307/1972(H3N2)), UniProt P0DOF8) (P0DOF8 whole entry): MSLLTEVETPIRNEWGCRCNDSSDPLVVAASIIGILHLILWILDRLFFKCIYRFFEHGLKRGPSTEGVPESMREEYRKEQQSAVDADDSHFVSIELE

SMILES | CC50 [1] | CC50 at 24 h [2] | EC50 (Influenza A virus) | EC50 [3]
O=S(=O)(c1ccc(Br)cc1)N(Cc1cccs1)Cc1cccs1 | > 156 µM | 81 µM | – | –
N#CCCN(Cc1cccs1)S(=O)(=O)c1ccc(C#N)cc1 | > 202 µM | > 201 µM | – | –
N#CCCN(Cc1cccs1)S(=O)(=O)c1cccc(F)c1 | > 206 µM | > 206 µM | – | –
Cc1cccc(S(=O)(=O)N(CCC#N)Cc2ccco2)c1 | > 220 µM | > 219 µM | – | –
N#CCCN(Cc1cccs1)S(=O)(=O)c1ccc(N)cc1 | > 179 µM | > 208 µM | – | –
N#CCCN(Cc1cccs1)S(=O)(=O)c1ccc([N+](=O)[O-])cc1 | > 191 µM | > 190 µM | – | –
N#CCCN(Cc1ccco1)S(=O)(=O)c1ccc(C(F)(F)F)cc1 | > 187 µM | > 186 µM | – | –
Cc1cc(C(=O)NCCSCc2ccc([N+](=O)[O-])cc2)c(C)o1 | – | – | 1.25 µM | –
N#CCCN(Cc1ccco1)S(=O)(=O)c1ccc(Br)cc1 | > 182 µM | > 181 µM | – | –
O=C(O)CCN(Cc1cccs1)S(=O)(=O)c1ccc(Br)cc1 | > 166 µM | > 165 µM | – | –
CCCN(Cc1cccs1)S(=O)(=O)c1ccc(Br)cc1 | > 179 µM | > 178 µM | – | –
N#CCCN(Cc1cccs1)S(=O)(=O)c1ccc(Cl)cc1 | > 197 µM | > 196 µM | – | –
N#CCCN(Cc1cccs1)S(=O)(=O)c1ccc(Br)cc1 | > 174 µM | > 173 µM | – | –
N#CCCN(Cc1ccco1)S(=O)(=O)c1ccc(C#N)cc1 | > 212 µM | > 212 µM | – | –
N#CCCN(Cc1ccccc1)S(=O)(=O)c1ccc(F)cc1 | > 210 µM | > 210 µM | – | –
Cc1ccc(S(=O)(=O)N(CCC#N)Cc2ccco2)cc1 | > 220 µM | > 219 µM | – | –
CCOC(=O)C1=C[C@@H](OC(CC)CC)[C@H](NC(C)=O)[C@@H](N)C1 [OSELTAMIVIR] | > 214 µM | – | – | Not Active
CCOC(=O)CCN(Cc1cccs1)S(=O)(=O)c1ccc(Br)cc1 | > 155 µM | > 154 µM | – | –
NC12CC3CC(CC(C3)C1)C2 [AMANTADINE] | > 443 µM | > 441 µM | – | –
CC(=O)c1ccc(S(=O)(=O)N(CCC#N)Cc2cccs2)cc1 | > 192 µM | > 191 µM | – | –
Cc1ccc(S(=O)(=O)N(CCC#N)Cc2cccs2)cc1 | > 209 µM | 127 µM | – | –
N#CCCN(Cc1ccco1)S(=O)(=O)c1ccc(Cl)cc1 | > 206 µM | > 205 µM | – | –
COc1ccc(S(=O)(=O)N(CCC#N)Cc2cccs2)cc1 | > 199 µM | > 198 µM | – | –
N#CCCN(Cc1ccco1)S(=O)(=O)c1ccc(F)cc1 | 216 to 217 µM | 216 to 227 µM | – | –
N#CCCN(Cc1cccs1)S(=O)(=O)c1ccc(F)cc1 | > 206 µM | > 206 µM | – | –
CCCN(CCC#N)S(=O)(=O)c1ccc(Br)cc1 | > 202 µM | 116 µM | – | –
N#CCCN(Cc1cccs1)S(=O)(=O)c1ccccc1F | > 206 µM | > 206 µM | – | –
COc1ccc(S(=O)(=O)N(CCC#N)Cc2ccco2)cc1 | > 209 µM | > 208 µM | – | –
N#CCCN(Cc1cccs1)S(=O)(=O)c1ccc(C(F)(F)F)cc1 | > 179 µM | > 178 µM | – | –
N#CCCN(Cc1ccc[nH]1)S(=O)(=O)c1ccc(Br)cc1 | > 182 µM | > 181 µM | – | –
